# How the values were obtained:
# Format in all cases: cell-based
# [1] = tested on: T84; experiment: Sulforhodamine B (SRB) assay, T84; conditions: Colon, T84, 48 hours
# Protocol: (§1) Growth inhibitory effect of Compound A on the cells listed below was measured by the sulforhodamine B assay. SW480 cells in 100 μl media were plated in each well of 96-well plate and allowed to attach for 24 hours. Compound A was added to the wells to produce the desired final concentrations, and the plates were incubated at 37° C. for 48 hours. The cells were then fixed by gentle addition of 100 μl of cold (4° C.) 10% trichloroacetic acid to each well, followed by incubation at 4° C. for 1 hour. Plates were washed with deionized water five times and allowed to air dry. The cells were then stained by addition of 100 μl SRB solution (0.4% SRB(w/v) in 1% acetic acid (v/v)) to wells for 15 min. After staining, the plates were quickly washed five times with 1% acetic acid to remove any unbound dye, and allowed to air dry. Bound dye was solubilized with 10 mmol/L Tris base (pH 10.5) prior to reading the plates. The optical density (OD) was read on a plate reader at a wavelength of 515 nm with Molecular Device. Inhibition of growth was expressed as relative viability (% of control) and GI50 was calculated from concentration-response curves after log/probit transformation.
# (§2) The values in Table 6 are in μg/ml.
# [2] = tested on: LOVO; experiment: Sulforhodamine B (SRB) assay, LOVO; conditions: Colon, 48 hours
# Protocol: as §1, §2
# [3] = tested on: HT29; experiment: Sulforhodamine B (SRB) assay, HT29; conditions: Colon, HT29, 48 hours
# Protocol: as §1, §2
# [4] = tested on: DLD-1; experiment: Sulforhodamine B (SRB) assay, DLD-1; conditions: Colon, DLD-1, 48 hours
# Protocol: as §1, §2
# [5] = tested on: COLO205; experiment: Sulforhodamine B (SRB) assay, COLO205; conditions: Colon, COLO205, 48 hours
# Protocol: as §1, §2
# [6] = tested on: CACO-2; experiment: Sulforhodamine B (SRB) assay, CACO-2; conditions: Colon, CACO-2, 48 hours
# Protocol: as §1, §2
# [7] = tested on: SW480-Kribb; experiment: Sulforhodamine B (SRB) assay, SW480-Kribb; conditions: Colon, 48 hours
# Protocol: as §1, §2
# [8] = tested on: SW480-CWP; experiment: Sulforhodamine B (SRB) assay, SW480-CWP; conditions: Colon, 48 hours
# Protocol: as §1, §2
# [9] = tested on: SW620; experiment: Sulforhodamine B (SRB) assay, SW620; conditions: Colon, SW620, 48 hours
# Protocol: as §1, §2
# [10] = tested on: KM12; experiment: Sulforhodamine B (SRB) assay, KM12; conditions: Colon, KM12, 48 hours
# Protocol: as §1, §2
# [11] = tested on: HCT15; experiment: Sulforhodamine B (SRB) assay, HCT15; conditions: Colon, HCT15, 48 hours
# Protocol: as §1, §2
# [12] = tested on: HCT116; experiment: Sulforhodamine B (SRB) assay, HCT116; conditions: Colon, HCT116, 48 hours
# Protocol: as §1, §2
# [13] = tested on: HCC2998; experiment: Sulforhodamine B (SRB) assay, HCC2998; conditions: Colon, HCC2998, 48 hours
# Protocol: as §1, §2
# [14] = tested on: 786-0; experiment: Sulforhodamine B (SRB) assay, 786-0; conditions: Renal, 786-0, 48 hours
# Protocol: as §1, §2
# [15] = tested on: HL60; experiment: Sulforhodamine B (SRB) assay, HL60; conditions: Leukemia, HL60, 48 hours
# Protocol: as §1, §2
# [16] = tested on: K562/VIN; experiment: Sulforhodamine B (SRB) assay, K562/VIN; conditions: Leukemia, 48 hours
# Protocol: as §1, §2
# [17] = tested on: K562/ADR; experiment: Sulforhodamine B (SRB) assay, K562/ADR; conditions: Leukemia, 48 hours
# Protocol: as §1, §2
# [18] = tested on: K562; experiment: Sulforhodamine B (SRB) assay, K562; conditions: Leukemia, K562, 48 hours
# Protocol: as §1, §2
# [19] = tested on: PC3; experiment: Sulforhodamine B (SRB) assay, PC3; conditions: Prostate, PC3, 48 hours
# Protocol: as §1, §2
# [20] = tested on: HT1080; experiment: Sulforhodamine B (SRB) assay, HT1080; conditions: Prostate, HT1080, 48 hours
# Protocol: as §1, §2
# [21] = tested on: A549; experiment: Sulforhodamine B (SRB) assay, A549; conditions: Lung, A549, 48 hours
# Protocol: as §1, §2
# [22] = tested on: NCI H460; experiment: Sulforhodamine B (SRB) assay, NCI H460; conditions: Lung, NCI H460, 48 hours
# Protocol: as §1, §2
# [23] = tested on: NCI H23; experiment: Sulforhodamine B (SRB) assay, NCI H23; conditions: Lung, NCI H23, 48 hours
# Protocol: as §1, §2
# [24] = tested on: 293; experiment: Sulforhodamine B (SRB) assay, 293; conditions: Renal, 293, 48 hours
# Protocol: as §1, §2
# [25] = tested on: CAKI-1; experiment: Sulforhodamine B (SRB) assay, CAKI-1; conditions: Renal, CAKI-1, 48 hours
# Protocol: as §1, §2
# [26] = tested on: ACHN; experiment: Sulforhodamine B (SRB) assay, ACHN; conditions: Renal, 48 hours
# Protocol: as §1, §2
# [27] = tested on: RPMI7951; experiment: Sulforhodamine B (SRB) assay, RPMI7951; conditions: Melanoma, RPMI7951, 48 hours
# Protocol: as §1, §2
# [28] = tested on: M14; experiment: Sulforhodamine B (SRB) assay, M14; conditions: Melanoma, M14, 48 hours
# Protocol: as §1, §2
# [29] = tested on: HMV-I; experiment: Sulforhodamine B (SRB) assay, HMV-I; conditions: Melanoma, 48 hours
# Protocol: as §1, §2
# [30] = tested on: G361; experiment: Sulforhodamine B (SRB) assay, G361; conditions: Melanoma, G361, 48 hours
# Protocol: as §1, §2
# [31] = tested on: CRL1579; experiment: Sulforhodamine B (SRB) assay, CRL1579; conditions: Melanoma, CRL1579, 48 hours
# Protocol: as §1, §2
# [32] = tested on: A431; experiment: Sulforhodamine B (SRB) assay, A431; conditions: Melanoma, A431, 48 hours
# Protocol: as §1, §2
# [33] = tested on: A253; experiment: Sulforhodamine B (SRB) assay, A253; conditions: Melanoma, A253, 48 hours
# Protocol: as §1, §2
# [34] = tested on: UACC62; experiment: Sulforhodamine B (SRB) assay, UACC62; conditions: Melanoma, UACC62, 48 hours
# Protocol: as §1, §2
# [35] = tested on: SK-MEL-28; experiment: Sulforhodamine B (SRB) assay, SK-MEL-28; conditions: Melanoma, SK-MEL-28, 48 hours
# Protocol: as §1, §2
# [36] = tested on: SK-MEL-5; experiment: Sulforhodamine B (SRB) assay, SK-MEL-5; conditions: Melanoma, SK-MEL-5, 48 hours
# Protocol: as §1, §2
# [37] = tested on: LOX-IMVI; experiment: Sulforhodamine B (SRB) assay, LOX-IMVI; conditions: Melanoma, 48 hours
# Protocol: as §1, §2
# [38] = tested on: A375; experiment: Sulforhodamine B (SRB) assay, A375; conditions: Melanoma, A375, 48 hours
# Protocol: as §1, §2
# [39] = tested on: MCF7/ADR; experiment: Sulforhodamine B (SRB) assay, MCF7/ADR; conditions: Breast, 48 hours
# Protocol: as §1, §2
# [40] = tested on: MCF7; experiment: Sulforhodamine B (SRB) assay, MCF7; conditions: Breast, MCF7, 48 hours
# Protocol: as §1, §2
# [41] = tested on: RPMI8226; experiment: Sulforhodamine B (SRB) assay, RPMI8226; conditions: Leukemia, RPMI8226, 48 hours
# Protocol: as §1, §2
# [42] = tested on: caspase 3; experiment: Caspase 3 activity in cultured tumor cells; conditions: 0.5 μM
# [43] = tested on: caspase 2; experiment: Caspase 2 activity in cultured tumor cells; conditions: 0.5 μM
# [44] = tested on: cultured tumor cells; experiment: Cell death of cultured tumor cells; conditions: 0.5 μM
# [45] = tested on: cultured tumor cells; experiment: FACS analysis of cells in G0, cultured tumor cells; conditions: 0.5 μM
Molecule,GI50 (SRB assay) [1] [µg/mL],GI50 (SRB assay) [2] [µg/mL],GI50 (SRB assay) [3] [µg/mL],GI50 (SRB assay) [4] [µg/mL],GI50 (SRB assay) [5] [µg/mL],GI50 (SRB assay) [7] [µg/mL],GI50 (SRB assay) [9] [µg/mL],GI50 (SRB assay) [10] [µg/mL],GI50 (SRB assay) [11] [µg/mL],GI50 (SRB assay) [12] [µg/mL],GI50 (SRB assay) [13] [µg/mL],GI50 (SRB assay) [15] [µg/mL],GI50 (SRB assay) [16] [µg/mL],GI50 (SRB assay) [17] [µg/mL],GI50 (SRB assay) [18] [µg/mL],GI50 (SRB assay) [19] [µg/mL],GI50 (SRB assay) [20] [µg/mL],GI50 (SRB assay) [21] [µg/mL],GI50 (SRB assay) [22] [µg/mL],GI50 (SRB assay) [25] [µg/mL],also measured
"2-Methyl-5-(p-hydroxyphenylmethyl)-7-naphthylmethyl-3,6-dioxo-hexahydro-[1,2,4]triazolo[4,5-a]pyrazine-1-carboxylic acid benzylamide [Example 4]",1.134,0.532,1.694,1.775,1.136,1.137,1.426,1.451,2.042,0.96,1.047,1.243,1.640,7.682,1.247,1.207,1.469,1.386,1.498,0.467,GI50 (SRB assay) [6]: 1.201 µg/mL; GI50 (SRB assay) [8]: 0.980 µg/mL; GI50 (SRB assay) [14]: 1.417 µg/mL; GI50 (SRB assay) [23]: 1.296 µg/mL; GI50 (SRB assay) [24]: 0.731 µg/mL; GI50 (SRB assay) [26]: 1.263 µg/mL; GI50 (SRB assay) [27]: 0.936 µg/mL; GI50 (SRB assay) [28]: 2.289 µg/mL; GI50 (SRB assay) [29]: 1.153 µg/mL; GI50 (SRB assay) [30]: 0.584 µg/mL; GI50 (SRB assay) [31]: 1.830 µg/mL; GI50 (SRB assay) [32]: 1.083 µg/mL; GI50 (SRB assay) [33]: 1.398 µg/mL; GI50 (SRB assay) [34]: 0.563 µg/mL; GI50 (SRB assay) [35]: 1.291 µg/mL; GI50 (SRB assay) [36]: 0.888 µg/mL; GI50 (SRB assay) [37]: 1.526 µg/mL; GI50 (SRB assay) [38]: 1.391 µg/mL; GI50 (SRB assay) [39]: 9.487 µg/mL; GI50 (SRB assay) [40]: 7.355 µg/mL
"N.N.[Cl][Pt][Cl] [Cisplatin, cisplatin, reference compound]",>10,>10,>10,>10,>10,>10,>10,>10,>10,>10,>10,>10,>10,>10,>10,>10,>10,>10,>10,>10,GI50 (SRB assay) [41]: >10 µg/mL; GI50 (SRB assay) [34]: >10 µg/mL; GI50 (SRB assay) [35]: >10 µg/mL; GI50 (SRB assay) [36]: >10 µg/mL; GI50 (SRB assay) [37]: >10 µg/mL; GI50 (SRB assay) [38]: >10 µg/mL; GI50 (SRB assay) [40]: >10 µg/mL
"CN[C@@H]1C[C@H]2O[C@@](C)([C@@H]1OC)n1c3ccccc3c3c4c(c5c6ccccc6n2c5c31)C(=O)NC4 [stausporine, staurosporine, reference compound]",,,,,,,,,,,,,,,,,,,,,caspase 3 activity [42]: increased both the caspase 2 and caspase 3 activities; caspase 2 activity [43]: increased both the caspase 2 and caspase 3 activities; cell death [44]: promote cell death; number of cells in G0 (FACS) [45]: increase the number of cells in G0
